Among the test systems are P388 leukemia; MCF7 breast; SNB-78 CNS; RXF-631 renal; XF 498 CNS; LXFL 529 NSCLC; KM20L2 colon; SN12K1 renal; P388/ADR leukemia; MDA-MB-435; MDA-N; PC-3 prostate.
Common to all, as to test: NCI tumour cell line growth inhibition, 48 h

SMILES strings stand for the structures.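 These data come from cells grown in 96-well plates and exposed to compound for 48 hours at five concentrations. TGI is the concentration that stops growth completely.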

For the molecule `COc1ccc2c(c1)CCc1c(CO)c(COC(=O)NC(C)C)n(C)c1-2`, the TGI is 3.54 µM in the assay on P388 leukemia; above 100 µM with MCF7 breast; 39.5 µM in the assay on SNB-78 CNS; above 100 µM with RXF-631 renal; above 62.6 µM in the assay with XF 498 CNS; 15.9 µM in the assay with LXFL 529 NSCLC. Moreover, the TGI with KM20L2 colon turned out to be 35.3 µM; with SN12K1 renal, 17.2 µM; with P388/ADR leukemia, 6.22 µM.

On to `CC(C)=C1CCC(CN2CCOCC2)C1=O` (stereo not drawn), for which the TGI in the assay with MCF7 breast is 22.5 µM; in the assay with SNB-78 CNS, 30.3 µM; in the assay on MDA-MB-435, 29.4 µM; in the assay with RXF-631 renal, above 31 µM; in the assay with XF 498 CNS it was 26.4 µM; in the assay with LXFL 529 NSCLC, 6.25 µM. Moreover, the figures for the TGI in the assay on MDA-N, in the assay on KM20L2 colon and in the assay with PC-3 prostate were 35.1 µM, 31.4 µM and 34.1 µM, respectively.

In the case of `COc1cccc2nc3c(C(=O)NCCN(C)C)cccc3nc12`, the TGI was 69.8 µM in the assay on SNB-78 CNS; above 67.2 µM with RXF-631 renal; 29.1 µM with XF 498 CNS; 42.4 µM in the assay with LXFL 529 NSCLC; 36.8 µM in the assay with KM20L2 colon.

As to `CCC(C)(O)c1cn(-c2ccc(S(=O)(=O)O)cc2)nn1` (stereo not drawn), the TGI in the assay on SNB-78 CNS, in the assay with RXF-631 renal, in the assay on XF 498 CNS, with LXFL 529 NSCLC and in the assay with KM20L2 colon was above 100 µM each time.

Source of the values: PubChem BioAssay (NCI).
